This note sets out measurements from publication PMC6814236, “Monitoring and characterizing soluble and membrane-bound ectonucleotidases CD73 and CD39” (PLoS ONE, 2019).

A word on the Km: it is the concentration of substrate that gives half-maximal velocity.

The target of assay [1] is T1, Recombinant Human 5'-Nucleotidase/CD73 (Homo sapiens, UniProt P21589).
T1 construct: purchased R&D Systems
T1 sequence (P21589 27-574): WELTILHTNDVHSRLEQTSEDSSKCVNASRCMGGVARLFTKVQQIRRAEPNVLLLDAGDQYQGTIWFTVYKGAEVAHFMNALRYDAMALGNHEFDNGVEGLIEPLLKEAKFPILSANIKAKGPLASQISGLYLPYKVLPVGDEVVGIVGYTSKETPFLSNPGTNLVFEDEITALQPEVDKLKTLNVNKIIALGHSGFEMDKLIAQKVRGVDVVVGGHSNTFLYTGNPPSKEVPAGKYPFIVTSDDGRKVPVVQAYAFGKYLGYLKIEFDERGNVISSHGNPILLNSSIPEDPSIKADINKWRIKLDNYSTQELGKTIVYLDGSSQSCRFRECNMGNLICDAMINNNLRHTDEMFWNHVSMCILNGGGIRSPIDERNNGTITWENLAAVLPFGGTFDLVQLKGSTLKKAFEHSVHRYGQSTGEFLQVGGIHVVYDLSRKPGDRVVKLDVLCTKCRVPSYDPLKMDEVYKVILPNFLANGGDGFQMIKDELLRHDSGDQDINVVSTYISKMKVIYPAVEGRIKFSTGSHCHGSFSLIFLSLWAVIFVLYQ
Kind of assay: Enzyme activity of purified CD73 (AMP-Glo assay). The class given is biochemical. Here is the method: • Determination of enzyme activity of purified CD73. In a 25 μl reaction buffer (10mM HEPES, pH 7.4, 2mM MgCl2, 1mM CaCl2, and 0.1mg/ml BSA) containing enzyme and AMP substrate at 1μM to 10μM (96-well format), enzyme activity was performed at 23°C for specified time period and terminated by the addition of equal volume (25μl) of AMP-Glo™ Reagent I containing 50 μM (final concentration) of known CD73 inhibitor, such as AMPCP. Reactions were mixed well and incubated for additional 30 min at 23°C. This was followed by the addition of 50 μl of AMP Detection Solution (10μl of AMP-Glo™ Reagent II per ml of Kinase-Glo® One Solution) and incubated for additional 60 min at 23°C before reading luminescence.

A further assay addresses T2, CD39 (His-Tag Human) (Homo sapiens, UniProt P49961).
T2 construct: His; purchased R&D Systems
T2 sequence (P49961 1-510): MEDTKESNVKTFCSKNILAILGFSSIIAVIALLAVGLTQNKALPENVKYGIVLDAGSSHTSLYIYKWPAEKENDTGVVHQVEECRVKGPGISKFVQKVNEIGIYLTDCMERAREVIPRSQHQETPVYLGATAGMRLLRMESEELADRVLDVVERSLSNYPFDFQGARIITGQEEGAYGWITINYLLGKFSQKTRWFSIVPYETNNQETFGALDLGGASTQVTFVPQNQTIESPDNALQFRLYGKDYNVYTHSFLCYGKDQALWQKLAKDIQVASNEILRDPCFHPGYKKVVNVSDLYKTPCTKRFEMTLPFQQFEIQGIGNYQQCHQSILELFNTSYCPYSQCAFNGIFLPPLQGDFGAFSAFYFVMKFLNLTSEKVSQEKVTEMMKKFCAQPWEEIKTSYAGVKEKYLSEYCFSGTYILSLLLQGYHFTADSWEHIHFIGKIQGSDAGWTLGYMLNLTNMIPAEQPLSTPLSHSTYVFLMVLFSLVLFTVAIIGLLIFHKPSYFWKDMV
Kind of assay: Enzyme activity of purified CD39 with ATP or ADP as substrate. The class given is biochemical. The conditions noted are these: 0.1ng CD39, 10 μM ATP or 10 μM ADP, 30min at 37°C. As for the experimental part:
• 2 Determination of enzyme activity of purified cytosolic cN-II. Activity of purified cN-II (Human cytosolic 5'-Nucleotidase) was determined using 25μl reaction buffer (50mM HEPES, pH 7.0, 100mM KCl, 20mM MgCl2, 5mM DTT, 2.5mM dATP, and 0.1mg/ml BSA) containing enzyme and AMP substrate at 10μM (96-well format). Reaction continued at 37°C for 60 minutes or for a certain time period and terminated by the addition of equal volume (25μl) of AMP-Glo™ Reagent I. Reactions were mixed well and incubated for additional 30 min at 23°C. This was followed by the addition of 50 μl of AMP Detection Solution (10μl of AMP-Glo™ Reagent II per ml of Kinase-Glo® One Solution) and incubated for additional 60 min at 23°C before reading luminescence. • 3 Determination of enzyme activity of purified CD39. […] When ATP is used as a substrate, an equal volume of Kinase-Glo® One Solution was added to CD39 reactions and incubated for 15 min before reading luminescence using a luminometer. When ADP is used as a substrate for CD39, after enzyme reaction completion, an equal volume of AMP Detection Solution with a known CD39 known inhibitor, such as POM 1 at 50μM final concentration was added. Reactions were mixed well and incubated for 60min before reading luminescence using luminometer. For enzyme dilution, reaction buffer can be used for dilution of enzymes.

With `Nc1ncnc2c1ncn2[C@@H]1O[C@H](COP(=O)(O)O)[C@@H](O)[C@H]1O` [AMP, adenosine monophosphate], the Km in assay [1] (0.01ng CD73 per reaction, varying AMP, 5min at 23°C) turned out to be 2.53 µM.

On to `CCN(CC)c1ncnc2c1ncn2[C@@H]1O[C@H](COP(=O)(O)OP(=O)(O)C(Br)(Br)P(=O)(O)O)[C@@H](O)[C@H]1O.[Na+].[Na+].[Na+]` [ARL 67156, 6-N,N-Diethyl-D-β,γ-dibromomethyleneATP trisodium salt], for which the “effect on CD73 enzyme activity” value in assay [1] (purified CD73, 0.1ng, 1μM AMP, 5 min at 23°C (Fig 6)) is given as “no effect”. Also, the “inhibitory effect on purified CD39” value against CD39 (His-Tag Human) was “inhibited”.
